Consider ten molecules from ChEMBL document CHEMBL1201862, “PubChem BioAssay data set” (2004).

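Assay format: 96-well plates, 48-hour exposure. GI50: concentration for 50% inhibition of growth.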 Activity calls are given as the source filed them. Cut-off read from the data, not from the text of the source: active = GI50 up to about 1.1 µM and inactive = higher.

Test systems include OVCAR-3; T47D; UO-31; NCI-H226; A498; HCC 2998; KM12; SR; HOP-62; K562; SNB-75; OVCAR-5; COLO 205; ACHN; SK-MEL-2; NCI-H522; LOX IMVI; PC-3; DU-145.
Common to all, as to assay: NCI-60 cell line screen, 48 h

Regarding `Cc1ncc([N+](=O)[O-])n1CCNC(=O)CCCn1cnc([N+](=O)[O-])n1`, the GI50 in the experiment with OVCAR-3 was > 100 µM (inactive); with T47D, > 100 µM (inactive); in the experiment with UO-31, > 100 µM (inactive); in the experiment with NCI-H226 it was > 100 µM (inactive); in the experiment with A498 it was > 84.3 µM (inactive); in the experiment with HCC 2998, > 100 µM (inactive). In addition, the GI50 with KM12 was > 100 µM (inactive); in the experiment on SR it was > 100 µM (inactive); in the experiment with HOP-62, > 100 µM (inactive); with K562, > 100 µM (inactive); in the experiment on SNB-75, 98.6 µM (inactive); in the experiment with OVCAR-5, > 100 µM (inactive). In addition, the GI50 is > 100 µM (inactive) with COLO 205; > 100 µM (inactive) in the experiment on ACHN; > 90.8 µM (inactive) in the experiment with SK-MEL-2; > 100 µM (inactive) in the experiment with NCI-H522; > 100 µM (inactive) in the experiment on LOX IMVI; > 100 µM (inactive) in the experiment on PC-3. Moreover, in the experiment on DU-145, the GI50 is > 100 µM (inactive).
On to `CC1=NN(c2ccc(C)cc2)C2(C1)SCC(=O)N2c1nc2ccccc2s1` (stereo not given), for which the GI50 in the experiment on OVCAR-3 is 12.2 µM (inactive); in the experiment with T47D, 11.8 µM (inactive); in the experiment on UO-31, 22.9 µM (inactive); with NCI-H226, 11.3 µM (inactive); with A498, 19.6 µM (inactive); in the experiment with HCC 2998, 22.9 µM (inactive). Also, the GI50 is 27 µM (inactive) with KM12; 7.11 µM (inactive) with SR; 16.9 µM (inactive) in the experiment with HOP-62; 24.2 µM (inactive) in the experiment with K562; 16.1 µM (inactive) in the experiment with SNB-75; 37.2 µM (inactive) with OVCAR-5. The GI50 was 22.7 µM (inactive) in the experiment with COLO 205; 15.6 µM (inactive) in the experiment with ACHN; 21.6 µM (inactive) in the experiment with SK-MEL-2; 16.7 µM (inactive) with NCI-H522; 19.6 µM (inactive) in the experiment with LOX IMVI; 20.5 µM (inactive) in the experiment with PC-3. The GI50 with DU-145 was 29.5 µM (inactive).
Regarding `Cc1cccc(CC(Cc2ccc(C)cc2C(=O)O)C(=O)O)c1` (stereo not given), the GI50 in the experiment with OVCAR-3, in the experiment with T47D, in the experiment on UO-31, in the experiment on NCI-H226, in the experiment on A498 and in the experiment on HCC 2998 was > 100 µM (inactive) throughout. Also, the GI50 in the experiment on KM12, in the experiment on SR, in the experiment on HOP-62, in the experiment on K562, in the experiment with SNB-75 and with OVCAR-5 was > 100 µM (inactive) throughout. For the same molecule, the GI50 in the experiment with COLO 205, with ACHN, in the experiment with SK-MEL-2, in the experiment on NCI-H522, in the experiment on LOX IMVI and in the experiment on PC-3 was > 100 µM (inactive) throughout. The GI50 with DU-145 is > 100 µM (inactive).
As for `Oc1cc2c3c(c1)c1cc4c(cc1c[n+]3CC2)OCO4`, the GI50 was 4.88 µM (inactive) in the experiment on OVCAR-3; 3.47 µM (inactive) in the experiment with T47D; 5.42 µM (inactive) in the experiment on UO-31; 2.69 µM (inactive) with NCI-H226; 35.4 µM (inactive) with A498; 4.4 µM (inactive) with HCC 2998. Moreover, the GI50 was 1.82 µM (inactive) in the experiment on KM12; 0.671 µM (active) in the experiment with SR; 8.45 µM (inactive) in the experiment on HOP-62; 1.57 µM (inactive) in the experiment on K562; 2.25 µM (inactive) in the experiment with SNB-75; 45.6 µM (inactive) with OVCAR-5. Further, the GI50 was 3.73 µM (inactive) in the experiment on COLO 205; 3.1 µM (inactive) in the experiment on ACHN; 9.68 µM (inactive) with SK-MEL-2; 0.492 µM (active) with NCI-H522; 1.63 µM (inactive) in the experiment with LOX IMVI; 3 µM (inactive) with PC-3. For the same molecule, in the experiment on DU-145, the GI50 was 3.23 µM (inactive).
For the molecule `O=C(N1CCN(c2ccccc2)CC1)N(C(=O)C1(c2ccc(Cl)cc2)CCCC1)S(=O)(=O)c1ccccc1`, the GI50 in the experiment on OVCAR-3 is 31.6 µM (inactive); with T47D it was 27.7 µM (inactive); in the experiment on UO-31, 32.8 µM (inactive); in the experiment on NCI-H226 it was 33.3 µM (inactive); with A498, < 0.01 µM (active); in the experiment on HCC 2998, 23.9 µM (inactive). Also, the GI50 with KM12 is 35.9 µM (inactive); with SR, 53.2 µM (inactive); in the experiment with HOP-62 it was 29.1 µM (inactive); with K562 it was 32.4 µM (inactive); in the experiment with SNB-75, 52.2 µM (inactive); in the experiment with OVCAR-5, 24.8 µM (inactive). Besides, the GI50 in the experiment on COLO 205 was 24.7 µM (inactive); with ACHN, 14 µM (inactive); in the experiment with SK-MEL-2, 19.9 µM (inactive); in the experiment with NCI-H522, 15.4 µM (inactive); in the experiment on LOX IMVI it was 21.3 µM (inactive); in the experiment on PC-3, 26.6 µM (inactive). In addition, the GI50 in the experiment on DU-145 was 38.5 µM (inactive).
On to `COC(=O)/C=C\C(C#N)(C#N)/N=C/c1ccc(Br)cc1`, for which the GI50 in the experiment with OVCAR-3 was 12 µM (inactive); in the experiment on T47D it was 3.63 µM (inactive); in the experiment on UO-31 it was 4.36 µM (inactive); in the experiment with NCI-H226, 6.4 µM (inactive); in the experiment on A498, 16.2 µM (inactive); in the experiment with HCC 2998 it was 16.9 µM (inactive). Besides, the GI50 in the experiment with KM12 is 14.4 µM (inactive); with SR it was 5.42 µM (inactive); with HOP-62, 16.7 µM (inactive); in the experiment on K562, 3.4 µM (inactive); with SNB-75 it was 15 µM (inactive); in the experiment with OVCAR-5, 14.1 µM (inactive). The GI50 is 3.37 µM (inactive) with COLO 205; 2.97 µM (inactive) with ACHN; 19.3 µM (inactive) with SK-MEL-2; 0.489 µM (active) in the experiment on NCI-H522; 1.85 µM (inactive) in the experiment on LOX IMVI; 13.4 µM (inactive) in the experiment with PC-3. In addition, the GI50 in the experiment on DU-145 was 12.1 µM (inactive).
For `COc1ccc(-c2c(C(C)=O)c(C)n(C3OC(COC(C)=O)C(OC(C)=O)C(OC(C)=O)C3OC(C)=O)c(=S)c2C#N)cc1` (stereo not given), the GI50 in the experiment on OVCAR-3 is > 100 µM (inactive); with T47D it was > 100 µM (inactive); with UO-31 it was 2.15 µM (inactive); with NCI-H226, > 100 µM (inactive); in the experiment with A498 it was > 100 µM (inactive); in the experiment with HCC 2998 it was > 100 µM (inactive). For the same molecule, the GI50 was > 100 µM (inactive) with KM12; > 100 µM (inactive) with SR; > 100 µM (inactive) in the experiment on HOP-62; 68.5 µM (inactive) in the experiment with K562; 75.5 µM (inactive) with SNB-75; > 100 µM (inactive) in the experiment on OVCAR-5. The GI50 in the experiment with COLO 205 is > 100 µM (inactive); with ACHN, > 100 µM (inactive); in the experiment with SK-MEL-2 it was 29.9 µM (inactive); in the experiment with NCI-H522 it was > 100 µM (inactive); in the experiment with LOX IMVI, 21.9 µM (inactive); with PC-3, 45.2 µM (inactive). Moreover, the GI50 in the experiment on DU-145 is > 100 µM (inactive).
As to `O=C1/C(=C\c2cccs2)Oc2ccccc21`, the GI50 is 24.9 µM (inactive) in the experiment with OVCAR-3; 2.99 µM (inactive) with T47D; 33 µM (inactive) with UO-31; 58.1 µM (inactive) in the experiment on NCI-H226; 42.3 µM (inactive) with A498; 64.6 µM (inactive) in the experiment with HCC 2998. In addition, the GI50 was 59.4 µM (inactive) in the experiment on KM12; > 100 µM (inactive) in the experiment with SR; 39.9 µM (inactive) with HOP-62; 74.5 µM (inactive) in the experiment with K562; 55.7 µM (inactive) in the experiment on SNB-75; > 100 µM (inactive) in the experiment with OVCAR-5. The GI50 in the experiment with COLO 205 is 75.3 µM (inactive); in the experiment on ACHN, 47.2 µM (inactive); in the experiment on SK-MEL-2, > 100 µM (inactive); in the experiment with NCI-H522, 39.8 µM (inactive); with LOX IMVI, 51.3 µM (inactive); in the experiment on PC-3, 43.2 µM (inactive). Further, the GI50 in the experiment with DU-145 was 50.9 µM (inactive).
Regarding `CC1(C)CCC[C@]2(C)[C@@H]1CC[C@@]13O[C@@H]1C1=C(CO)C(=O)O[C@]14O[C@@H]4[C@@H]23`, the GI50 is 13.2 µM (inactive) with OVCAR-3; 22 µM (inactive) with T47D; 6.05 µM (inactive) in the experiment on UO-31; 19 µM (inactive) in the experiment on NCI-H226; 17.3 µM (inactive) in the experiment with A498; 19.2 µM (inactive) in the experiment on HCC 2998. Also, the GI50 in the experiment on KM12 is 18 µM (inactive); in the experiment on SR, 4.61 µM (inactive); with HOP-62 it was 17.8 µM (inactive); with K562, > 41 µM (inactive); in the experiment with SNB-75, 15.2 µM (inactive); with OVCAR-5 it was 15.7 µM (inactive). In addition, the GI50 is 17.7 µM (inactive) in the experiment with COLO 205; 14.3 µM (inactive) in the experiment with ACHN; 13.9 µM (inactive) with SK-MEL-2; 7.55 µM (inactive) in the experiment on NCI-H522; 10.8 µM (inactive) in the experiment with LOX IMVI; 9.1 µM (inactive) in the experiment with PC-3. Also, the GI50 with DU-145 is 14.3 µM (inactive).
Turning to `Cc1ccc2[nH]c(=N/c3ccccc3C)/c(=N\c3ccccc3C)[nH]c2c1`, the GI50 in the experiment on OVCAR-3 was 22.4 µM (inactive); in the experiment with T47D, 19.3 µM (inactive); with UO-31, 19.4 µM (inactive); in the experiment on NCI-H226 it was 29.2 µM (inactive); in the experiment on A498, 26.9 µM (inactive); with HCC 2998, 23.5 µM (inactive). In addition, the GI50 in the experiment with KM12 was 17.6 µM (inactive); with SR, > 100 µM (inactive); with HOP-62, 40.2 µM (inactive); in the experiment with K562, 23.8 µM (inactive); in the experiment with SNB-75, 34.7 µM (inactive); with OVCAR-5 it was 21.5 µM (inactive). For the same molecule, the GI50 was 16.1 µM (inactive) in the experiment with COLO 205; 31.3 µM (inactive) in the experiment with ACHN; 12.7 µM (inactive) in the experiment on SK-MEL-2; 10.2 µM (inactive) in the experiment on NCI-H522; 20 µM (inactive) in the experiment with LOX IMVI; 31.3 µM (inactive) with PC-3. The GI50 in the experiment on DU-145 is 41.1 µM (inactive).
